Patent publication US20110218188A1, “SUBSTITUTED (PYRIDYL)-AZINYLAMINE DERIVATIVES AS FUNGICIDES” (priority 2008, published 2011)
Marks after values point to notes of the source that are not given here.

Assay: Measurement of logP values by HPLC on reversed phase columns (EEC directive 79/831 Annex V.A8)
Format: physicochemical

SMILES: CCCN(C)C(=O)c1cc(-c2ncnc(Nc3cccc(NC(C)=O)c3)n2)ccn1 [Example B305]
- logP (pH 2.7): 1.87

SMILES: CN(C)C(=S)c1cc(-c2ncnc(Nc3ccc(F)c(C(F)F)c3)n2)ccn1 [Example B332]
- logP (pH 2.7): 2.73

SMILES: CCN(CC)C(=O)c1cc(-c2ncnc(Nc3cccc(OC)c3)n2)ccn1 [Example B273]
- logP (pH 2.7): 2.59

SMILES: O=C(NCCCN1CCCCCC1=O)c1cc(-c2ncnc(Nc3ccc(F)c(Cl)c3)n2)ccn1 [Example B194]
- logP (pH 2.7): 3.19

SMILES: CCN(CC)C(=S)c1cc(-c2ncnc(Nc3ccsc3)n2)ccn1 [Example C22]
- logP (pH 2.7): 3.02

SMILES: CCC(=NOCCN(C)C)c1cc(-c2ncnc(Nc3cccc(Cl)c3)n2)ccn1 (mixture of isomers) [B49]
- logP (pH 2.7): 2.06

SMILES: CC(C)CN(C)C(=O)c1cc(-c2ncnc(Nc3ccccc3)n2)ccn1 [Example B315]
- logP (pH 2.7): 2.84

SMILES: CC(=NOCCN(C)C)c1cc(-c2ncnc(Nc3cccc(Cl)c3)n2)ccn1 (mixture of isomers) [B32]
- logP (pH 2.7): 1.99

SMILES: CSc1cccc(Nc2ncnc(-c3ccnc(C(=O)NC4CCC4)c3)n2)c1 [B220]
- logP (pH 2.7): 3.73

SMILES: CN1CCN(C(=O)c2cc(-c3ncnc(Nc4cccc(Cl)c4)n3)ccn2)CC1 [Example B184]
- logP (pH 2.7): 1.5

SMILES: CCN(C)C(=O)c1cc(-c2ncnc(Nc3cccc(C(C)C)c3)n2)ccn1 [Example B258]
- logP (pH 2.7): 3.11

SMILES: C=CCNC(=O)c1cc(-c2ncnc(Nc3cccc(F)c3)n2)ccn1 [B325]
- logP (pH 2.7): 3.08

SMILES: CCC(COC)NC(=O)c1cc(-c2ncnc(Nc3ccc(F)c(Cl)c3)n2)ccn1 (stereo not drawn) [Example B195]
- logP (pH 2.7): 3.89

SMILES: CN(CC1CCCO1)C(=O)c1cc(-c2ccnc(Nc3ccnc(Cl)c3)n2)ccn1 (stereo not drawn) [Example A15]
- logP (pH 2.7): 1.99

SMILES: CN(CC(F)F)C(=O)c1cc(-c2ncnc(Nc3ccsc3)n2)ccn1 [Example C21]
- logP (pH 2.7): 2.46

SMILES: CN(CC(F)F)C(=S)c1cc(-c2ncnc(Nc3ccc(F)c(C(F)F)c3)n2)ccn1 [Example B342]
- logP (pH 2.7): 3.35

SMILES: C#CCON=C(C)c1cc(-c2ncnc(Nc3cccc(Cl)c3)n2)ccn1 (mixture of isomers) [Example B37]
- logP (pH 2.7): 3.98

SMILES: CC(C)CN(C)C(=O)c1cc(-c2ncnc(Nc3cc(F)ccc3F)n2)ccn1 [Example B238]
- logP (pH 2.7): 2.9

SMILES: COCC(C1CC1)N(C)C(=O)c1cc(-c2ncnc(Nc3ccc(F)cc3)n2)ccn1 (stereo not drawn) [Example B24]
- logP (pH 2.7): 2.8

SMILES: NC(=S)c1cc(-c2ncnc(Nc3cccc(F)c3)n2)ccn1 [B321]
- logP (pH 2.7): 2.57

SMILES: Cc1ccc(Nc2ncnc(-c3ccnc(C(=O)NC4CCC4)c3)n2)cc1Cl [B234]
- logP (pH 2.7): 4.29

SMILES: COCCN(C)C(=O)c1cc(-c2ncnc(Nc3cccc(F)c3)n2)ccn1 [Example B9]
- logP (pH 2.7): 2.26

SMILES: CCN(CC)C(=O)c1cc(-c2ncnc(Nc3ccc(F)c(C(F)F)c3)n2)ccn1 [Example B353]
- logP (pH 2.7): 2.86

SMILES: CCN(CC)C(=O)c1cc(-c2ncnc(Nc3ccc(F)cc3)n2)ccn1 [Example B15]
- logP (pH 2.7): 2.6

SMILES: COCC(COC)NC(=O)c1cc(-c2ncnc(Nc3cccc(Cl)c3)n2)ccn1 [B86]
- logP (pH 2.7): 3.39

SMILES: CC(C)N(C)C(=O)c1cc(-c2ncnc(Nc3ccc(F)c(Cl)c3)n2)ccn1 [B208]
- logP (pH 2.7): 3.02

SMILES: CN(CC1CC1)C(=S)c1cc(-c2ncnc(Nc3ccccc3)n2)ccn1 [Example B337]
- logP (pH 2.7): 3.23

SMILES: COC(=O)c1cc(-c2ncnc(Nc3ccc(OC)c(OC)c3)n2)ccn1 [B422]
- logP (pH 7.8): 2.02^[c]

SMILES: CC(=O)N(c1ccsc1)c1ncnc(-c2ccnc(C(=O)N(C)CCC#N)c2)n1 [Example C29]
- logP (pH 2.7): 1.78

SMILES: CC(C)=CC(=O)O/N=C(/N)c1cc(-c2ncnc(Nc3cccc(Cl)c3)n2)ccn1 [Example B111]
- logP (pH 2.7): 3.92

SMILES: CCCON=C(C)c1cc(-c2ncnc(Nc3cccc(Cl)c3)n2)ccn1 (mixture of isomers) [Example B43]
- logP (pH 2.7): 5.13

SMILES: CCC(=NOC(C)C1CC1)c1cc(-c2ncnc(Nc3cccc(Cl)c3)n2)ccn1 (mixture of isomers) [B84]
- logP (pH 2.7): 6.24

SMILES: O=C(NCC1CCCO1)c1cc(-c2ncnc(Nc3cccc(Cl)c3)n2)ccn1 (stereo not drawn) [Example B33]
- logP (pH 2.7): 3.09

SMILES: COc1cccc(Nc2ncnc(-c3ccnc(C(=O)N(C)C)c3)n2)c1 [Example B276]
- logP (pH 2.7): 2.01

SMILES: O=C(NC1CCC1)c1cc(-c2ncnc(Nc3cccc(Cl)c3)n2)ccn1 [Example B113]
- logP (pH 2.7): 3.89

SMILES: CCN(C)C(=O)c1cc(-c2ncnc(Nc3ccccc3)n2)ccn1 [Example B316]
- logP (pH 2.7): 2.2

SMILES: CC(C)N(C)C(=O)c1cc(-c2ncnc(Nc3cccc(C(F)F)c3)n2)ccn1 [Example B290]
- logP (pH 2.7): 2.65

SMILES: COC(=O)c1cc(-c2ncnc(Nc3ccc(Br)c(OC)c3)n2)ccn1 [B421]
- logP (pH 2.7): 2.90

SMILES: CCN(CC)C(=S)c1cc(-c2ncnc(Nc3cccc(OC)c3)n2)ccn1 [Example B282]
- logP (pH 2.7): 3.15

SMILES: Cc1ccc(Nc2ncnc(-c3ccnc(C(=O)NC(C)C)c3)n2)cc1Cl [B230]
- logP (pH 2.7): 4.04

SMILES: CCC(C)NC(=O)c1cc(-c2ncnc(Nc3ccc(C)c(Cl)c3)n2)ccn1 (stereo not drawn) [B232]
- logP (pH 2.7): 4.49

SMILES: CCN(C)C(=O)c1cc(-c2ncnc(Nc3cccc(F)c3)n2)ccn1 [Example B7]
- logP (pH 2.7): 2.4

SMILES: CCN(C)C(=O)c1cc(-c2ncnc(Nc3cccc(COC)c3)n2)ccn1 [Example B245]
- logP (pH 2.7): 2.17

SMILES: O=C(NCCCO)c1cc(-c2ncnc(Nc3cccc(Cl)c3)n2)ccn1 [Example B183]
- logP (pH 2.7): 2.4

SMILES: CCCCN(CC)C(=O)c1cc(-c2ncnc(Nc3cccc(Cl)c3)n2)ccn1 [Example B162]
- logP (pH 2.7): 3.87

SMILES: CCCN(C)C(=S)c1cc(-c2ncnc(Nc3ccc(F)c(C(F)F)c3)n2)ccn1 [Example B334]
- logP (pH 2.7): 3.4

SMILES: CCCN(C)C(=O)c1cc(-c2ncnc(Nc3cccc(COC)c3)n2)ccn1 [Example B241]
- logP (pH 2.7): 2.48

SMILES: CN(CC1CC1)C(=O)c1cc(-c2ncnc(Nc3cccc(OC(F)(F)F)c3)n2)ccn1 [Example B265]
- logP (pH 2.7): 3.48

SMILES: CC(=O)Nc1cccc(Nc2ncnc(-c3ccnc(C(=O)N(C)CC4CC4)c3)n2)c1 [B306]
- logP (pH 2.7): 1.94

SMILES: C=CCN(CC=C)C(=O)c1cc(-c2ncnc(Nc3cccc(Cl)c3)n2)ccn1 [Example B143]
- logP (pH 2.7): 3.67

SMILES: O=C(c1cc(-c2ncnc(Nc3cccc(Cl)c3)n2)ccn1)N1CCC(C(F)(F)F)CC1 [B120]
- logP (pH 2.7): 3.55

SMILES: CCON(C)C(=O)c1cc(-c2ncnc(Nc3cccc(C(F)F)c3)n2)ccn1 [B415]
- logP (pH 2.7): 2.57

SMILES: CC(C)N(C)C(=O)c1cc(-c2ncnc(Nc3cccc(F)c3)n2)ccn1 [Example B8]
- logP (pH 2.7): 2.67

SMILES: COc1cccc(Nc2ncnc(-c3ccnc(C(=O)N(C)CC(C)C)c3)n2)c1 [Example B277]
- logP (pH 2.7): 2.90

SMILES: CN(CC1CC1)C(=O)c1cc(-c2ncnc(Nc3cccc(F)c3)n2)ccn1 [Example B4]
- logP (pH 2.7): 2.82

SMILES: COCCNC(=O)c1cc(-c2ncnc(Nc3ccc(C)c(Cl)c3)n2)ccn1 [Example B227]
- logP (pH 2.7): 3.48

SMILES: CN(CC(F)F)C(=O)c1cc(-c2ncnc(Nc3ccc(Cl)c(C(F)F)c3)n2)ccn1 [Example B392]
- logP (pH 2.7): 3.19

SMILES: CCN(C)C(=S)c1cc(-c2ncnc(Nc3ccccc3)n2)ccn1 [Example B318]
- logP (pH 2.7): 2.73

SMILES: CCC(COC)NC(=O)c1cc(-c2ncnc(Nc3cccc(SC)c3)n2)ccn1 (stereo not drawn) [B216]
- logP (pH 2.7): 3.69

SMILES: COCc1cccc(Nc2ncnc(-c3ccnc(C(=O)N(C)C)c3)n2)c1 [Example B243]
- logP (pH 2.7): 1.91

SMILES: CCN(C)C(=S)c1cc(-c2ncnc(Nc3cccc(COC)c3)n2)ccn1 [Example B248]
- logP (pH 2.7): 2.66

SMILES: CCCNC(=O)c1cc(-c2ncnc(Nc3cccc(Cl)c3)n2)ccn1 [B103]
- logP (pH 2.7): 3.62

SMILES: CN(C)C(=O)c1cc(-c2ccnc(Nc3ccnc(Cl)c3)n2)ccn1 [Example A32]
- logP (pH 2.7): 1.69

SMILES: CSc1cccc(Nc2ncnc(-c3ccnc(C(=O)NC(C)C)c3)n2)c1 [B217]
- logP (pH 2.7): 3.53

SMILES: CCN(C)C(=O)c1cc(-c2ncnc(Nc3ccc(F)c(F)c3)n2)ccn1 [Example B378]
- logP (pH 2.7): 2.55

SMILES: COC(C)C(C)N(C)C(=O)c1cc(-c2ncnc(Nc3cccc(Cl)c3)n2)ccn1 (stereo not drawn) [Example B189]
- logP (pH 2.7): 3.15

SMILES: O=C(NCCCN1CCCC1=O)c1cc(-c2ncnc(Nc3cccc(Cl)c3)n2)ccn1 [B100]
- logP (pH 2.7): 2.63

SMILES: CCC(C)NC(=O)c1cc(-c2ncnc(Nc3cccc(SC)c3)n2)ccn1 (stereo not drawn) [B218]
- logP (pH 2.7): 3.94

SMILES: COc1ccc(Nc2ncnc(-c3ccnc(C(=O)N4CCCCC4)c3)n2)cn1 [Example C2, (4-{4-[(6-methoxypyridin-3-yl)amino]-1,3,5-triazin-2-yl}pyridin-2-yl)(piperidin-1-yl)methanone]
- chromatographic logP (pH 7.8): 2.14
